Measured values: patent US12690589B2, “Herbicidal compositions comprising pyroxasulfone” (BASF SE, priority 2024, dated 2026)

Legend:
Assay in all cases: Post-emergence application in field trials, herbicidal activity (damage scale 0 to 100%)
Format in all cases: in vivo
[1] = tested on: Amaranthus retroflexus (AMARE)
Method: (§1) In the examples below, using the method of S. R. Colby (1967) “Calculating synergistic and antagonistic responses of herbicide combinations”, Weeds 15, p. 22ff., the value E, which is expected if the activity of the individual active compounds is only additive, was calculated:
(§2) [formula] • wherein • X=percent activity using active herbicide A at an application rate a; • Y=percent activity using active herbicide B (e.g. pyroxasulfone) at an application rate b; • E=expected activity (in %) by A+B at application rates a+b.
(§3) For 3-component mixtures the synergistic response was calculated as described in: Ferry, Nancy; Stanley, Bruce H.; and Armel, Gregory (2005). “DESIGN AND ANALYSIS OF BIOLOGICAL ASSAYS OF MIXTURES,” Conference on Applied Statistics in Agriculture. https://doi.org/10.4148/2475-7772.1133. According to this publication, the Colby calculation can be generalized to a third mixing partner, Z, employing the following formula: […]
(§4) If the value found experimentally is higher than the value E calculated according to Colby, a synergistic effect is present.
(§5) On field test sites, natural weed infestation or seeded weeds were treated post-emergence of the weeds.
(§6) In the field trials, the weeds were treated as indicated below.
(§7) In the following experiments, the herbicidal activity for the individual herbicidal compositions (solo and mixture applications) was assessed at the indicated days after treatment (DAT). The assessments for the damage on undesired weeds caused by the composition was carried out using a scale from 0 to 100%, compared to the untreated control plants. Here, 0 means no damage and 100 means complete destruction of the plants.
(§8) Herbicide A-1 (342 g/l) and pyroxasulfone (500 g/l) were, together with addition of 0.25 v/v % MSO (methylated seed oil) as adjuvant, formulated in 200 l/ha water as distribution medium and sprayed with commercial flat fan nozzles.
(§9) Herbicide A-1 (342 g/l), pyroxasulfone (500 g/l) and trifludimoxazin (500 g/l) were, together with addition of 0.25 v/v % MSO (methylated seed oil) as adjuvant, formulated in 200 l/ha water as distribution medium and sprayed with commercial flat fan nozzles.
(§10) Herbicide A-1 (342 g/I), pyroxasulfone (500 g/l) and glyphosate-isopropylammonium (356 g/l) were, together with addition of 0.25 v/v % MSO (methylated seed oil) as adjuvant, formulated in 200 l/ha water as distribution medium and sprayed with commercial flat fan nozzles.
(§11) Herbicide A-1 (342 g/l), pyroxasulfone (500 g/l) and glufosinate-P-ammonium (211 g/l) were, together with addition of 0.25 v/v % MSO (methylated seed oil) as adjuvant, formulated in 200 l/ha water as distribution medium and sprayed with commercial flat fan nozzles.
(§12) Herbicide A-1 (342 g/l), pyroxasulfone (500 g/l) and 2,4-D-choline (456 g/l) were, together with addition of 0.25 v/v % MSO (methylated seed oil) as adjuvant, formulated in 200 l/ha water as distribution medium and sprayed with commercial flat fan nozzles.

[2] = tested on: Lolium multiflorum (LOLMU)
Method: as §1, §2, §3, §4, §5, §6, §7, §8, §9, §10, §11, §12

Zea mays (ZEAMX) = tested on: Zea mays (ZEAMX)
Method: as §1, §2, §3, §4, §5, §6, §7, §8, §9, §10, §11, §12

Hordeum vulgare (HORVW) = tested on: Hordeum vulgare (HORVW)
Method: as §1, §2, §3, §4, §5, §6, §7, §8, §9, §10, §11, §12

SMILES: Cn1nc(C(F)(F)F)c(CS(=O)(=O)C2=NOC(C)(C)C2)c1OC(F)F [B, pyroxasulfone]
- % Herbicidal activity ([1]; 7 DAT, stage 31-49, height 10-12 cm, g ai/ha A-1 12.5, B 70, C-4 12.5): 0%
- % Herbicidal activity ([1]; 21 DAT, stage 31-49, height 10-12 cm, g ai/ha A-1 18, B 70, C-12 252): 0%
- % Herbicidal activity ([1]; 21 DAT, stage 31-49, height 10-12 cm, g ai/ha A-1 18, B 90, C-12 252): 0%
- % Herbicidal activity ([1]; 42 DAT, stage 31-49, height 10-12 cm, g ai/ha A-1 12.5, B 70, C-4 12.5): 0%
- % Herbicidal activity ([1]; 42 DAT, stage 31-49, height 10-12 cm, g ai/ha A-1 18, B 70): 0%
- % Herbicidal activity ([1]; 42 DAT, stage 31-49, height 10-12 cm, g ai/ha A-1 18, B 70, C-4 12.5): 0%
- % Herbicidal activity ([1]; 42 DAT, stage 31-49, height 10-12 cm, g ai/ha A-1 18, B 90, C-4 12.5): 0%
- % Herbicidal activity ([1]; AMARE, growth stage 31-49, height 10-12 cm, B 70 g ai/ha, 7 DAT, Table 4.1): 0%
- % Herbicidal activity ([1]; AMARE, growth stage 31-49, height 10-12 cm, B 70 g ai/ha, 21 DAT, Table 4.3): 0%
- % Herbicidal activity ([1]; AMARE, growth stage 31-49, height 10-12 cm, B 90 g ai/ha, 7 DAT, Table 4.1): 0%
- % Herbicidal activity ([1]; AMARE, growth stage 31-49, height 10-12 cm, B 90 g ai/ha, 21 DAT, Table 4.3): 0%
- % Herbicidal activity ([2]; 7 DAT, stage 22-25, height 20-25 cm, g ai/ha A-1 12.5, B 70, C-12 252): 10%
- % Herbicidal activity ([2]; 7 DAT, stage 22-25, height 20-25 cm, g ai/ha A-1 18, B 70, C-12 252): 10%
- % Herbicidal activity ([2]; 7 DAT, stage 22-25, height 20-25 cm, g ai/ha A-1 18, B 90, C-12 252): 10%
- % Herbicidal activity ([2]; 21 DAT, stage 22-25, height 20-25 cm, g ai/ha A-1 12.5, B 70, C-12 252): 10%
- % Herbicidal activity ([2]; 21 DAT, stage 22-25, height 20-25 cm, g ai/ha A-1 18, B 70, C-12 252): 10%
- % Herbicidal activity ([2]; 21 DAT, stage 22-25, height 20-25 cm, g ai/ha A-1 18, B 90, C-12 252): 10%
- % Herbicidal activity ([2]; 28 DAT, stage 22-25, height 20-25 cm, g ai/ha A-1 12.5, B 70, C-12 252): 10%
- % Herbicidal activity ([2]; 28 DAT, stage 22-25, height 20-25 cm, g ai/ha A-1 18, B 70, C-12 252): 10%
- % Herbicidal activity ([2]; 28 DAT, stage 22-25, height 20-25 cm, g ai/ha A-1 18, B 90, C-12 252): 10%
- % Herbicidal activity ([2]; LOLMU, growth stage 22-25, height 20-25 cm, B 70 g ai/ha, 21 DAT, Table 4.4): 20%
- % Herbicidal activity ([2]; LOLMU, growth stage 22-25, height 20-25 cm, B 90 g ai/ha, 7 DAT, Table 4.2): 10%
- % Herbicidal activity ([2]; LOLMU, growth stage 22-25, height 20-25 cm, B 90 g ai/ha, 21 DAT, Table 4.4): 10%
- % Herbicidal activity (Zea mays (ZEAMX); 7 DAT, stage 15-16, height 27-33 cm, g ai/ha A-1 12.5, B 70, C-12 252): 0%
- % Herbicidal activity (Zea mays (ZEAMX); 7 DAT, stage 15-16, height 27-33 cm, g ai/ha A-1 18, B 70, C-12 252): 0%
- % Herbicidal activity (Zea mays (ZEAMX); 7 DAT, stage 15-16, height 27-33 cm, g ai/ha A-1 18, B 90, C-4 12.5): 0%
- % Herbicidal activity (Zea mays (ZEAMX); 7 DAT, stage 15-16, height 27-33 cm, g ai/ha A-1 18, B 90, C-12 252): 0%
- % Herbicidal activity (Zea mays (ZEAMX); 21 DAT, stage 15-16, height 27-33 cm, g ai/ha A-1 12.5, B 70, C-12 252): 0%
- % Herbicidal activity (Zea mays (ZEAMX); 21 DAT, stage 15-16, height 27-33 cm, g ai/ha A-1 18, B 70, C-12 252): 0%
- % Herbicidal activity (Zea mays (ZEAMX); 21 DAT, stage 15-16, height 27-33 cm, g ai/ha A-1 18, B 90, C-12 252): 0%
- % Herbicidal activity (Zea mays (ZEAMX); 42 DAT, stage 15-16, height 27-33 cm, g ai/ha A-1 12.5, B 70, C-12 252): 0%
- % Herbicidal activity (Zea mays (ZEAMX); 42 DAT, stage 15-16, height 27-33 cm, g ai/ha A-1 18, B 70, C-12 252): 0%
- % Herbicidal activity (Zea mays (ZEAMX); 42 DAT, stage 15-16, height 27-33 cm, g ai/ha A-1 18, B 90, C-12 252): 0%
- % Herbicidal activity (Zea mays (ZEAMX); Table 8.1, 7 DAT, stage 15-16, height 50-60 cm, g ai/ha A-1 18, B 70, C-12 1066): 5%
- % Herbicidal activity (Zea mays (ZEAMX); Table 8.1, 7 DAT, stage 15-16, height 50-60 cm, g ai/ha A-1 18, B 90, C-12 1066): 5%
- % Herbicidal activity (Zea mays (ZEAMX); ZEAMX, growth stage 15-16, height 40-60 cm, B 70 g ai/ha, 7 DAT, Table 4.2): 5%
- % Herbicidal activity (Zea mays (ZEAMX); ZEAMX, growth stage 15-16, height 40-60 cm, B 70 g ai/ha, 21 DAT, Table 4.4): 3%
- % Herbicidal activity (Zea mays (ZEAMX); ZEAMX, growth stage 15-16, height 40-60 cm, B 90 g ai/ha, 7 DAT, Table 4.2): 5%
- % Herbicidal activity (Hordeum vulgare (HORVW); 7 DAT, stage 23-29, height 20-25 cm, g ai/ha A-1 12.5, B 70, C-12 252): 0%
- % Herbicidal activity (Hordeum vulgare (HORVW); 7 DAT, stage 23-29, height 20-25 cm, g ai/ha A-1 18, B 70, C-12 252): 0%
- % Herbicidal activity (Hordeum vulgare (HORVW); 7 DAT, stage 23-29, height 20-25 cm, g ai/ha A-1 18, B 90, C-12 252): 0%
- % Herbicidal activity (Hordeum vulgare (HORVW); 21 DAT, stage 23-29, height 20-25 cm, g ai/ha A-1 12.5, B 70, C-12 252): 0%
- % Herbicidal activity (Hordeum vulgare (HORVW); 21 DAT, stage 23-29, height 20-25 cm, g ai/ha A-1 18, B 70, C-12 252): 0%
- % Herbicidal activity (Hordeum vulgare (HORVW); 21 DAT, stage 23-29, height 20-25 cm, g ai/ha A-1 18, B 90, C-12 252): 0%
- % Herbicidal activity (Hordeum vulgare (HORVW); 28 DAT, stage 23-29, height 20-25 cm, g ai/ha A-1 12.5, B 70, C-12 252): 0%
- % Herbicidal activity (Hordeum vulgare (HORVW); 28 DAT, stage 23-29, height 20-25 cm, g ai/ha A-1 18, B 70, C-12 252): 0%
- % Herbicidal activity (Hordeum vulgare (HORVW); 28 DAT, stage 23-29, height 20-25 cm, g ai/ha A-1 18, B 90, C-12 252): 0%
- % Herbicidal activity (Hordeum vulgare (HORVW); HORVW, growth stage 23-29, height 20-25 cm, B 70 g ai/ha, 7 DAT, Table 4.2): 0%
